Data on 30 compounds can be found in US20070219212A1, “Pyranouidole Derivatives and the Use Thereof for the Treatment of Hepatitis C Virus Infection or Disease” (priority 2004, published 2007).

Like-named read-outs stand apart in the source and are kept apart here. Where only a bound is given, the exact number is not on record here.

The target of experiment [1] is BB7 RNA-dependent RNA polymerase hepatitis C virus protein (Con1 HCV sequence) (Hepatitis C virus genotype 1b, UniProt Q9WMX2). The experiment is described as follows: Hepatitis C polymerase (BB7) inhibition. It counts as biochemical. An excerpt: For purposes of this invention, the term “BB7” denotes an RNA-dependent RNA polymerase hepatitis C virus protein sequence which is derived from HCV replicon. A discussion of BB7 and related technology can be found in Blight, K. et al. (2000) Science 290:1972-1974. BB7 can be licensed from Apath, LLC (893 North Warson Road, Saint Louis Mo. 63141, USA). BB7 is also referred to as Con1 HCV sequence and discussions of Con1 can be found in the following references: Lohmann, V. et al. (1999) Science 285:110-113; Pietschmann, T. et al. (2001) J. Virol. […]:1252-1264; Lohmann, V. et al. (2001) J. Virol. 75:1437-1449.
BB7 RNA-dependent RNA polymerase hepatitis C virus protein (Con1 HCV sequence), sequence (Q9WMX2 2420-3010): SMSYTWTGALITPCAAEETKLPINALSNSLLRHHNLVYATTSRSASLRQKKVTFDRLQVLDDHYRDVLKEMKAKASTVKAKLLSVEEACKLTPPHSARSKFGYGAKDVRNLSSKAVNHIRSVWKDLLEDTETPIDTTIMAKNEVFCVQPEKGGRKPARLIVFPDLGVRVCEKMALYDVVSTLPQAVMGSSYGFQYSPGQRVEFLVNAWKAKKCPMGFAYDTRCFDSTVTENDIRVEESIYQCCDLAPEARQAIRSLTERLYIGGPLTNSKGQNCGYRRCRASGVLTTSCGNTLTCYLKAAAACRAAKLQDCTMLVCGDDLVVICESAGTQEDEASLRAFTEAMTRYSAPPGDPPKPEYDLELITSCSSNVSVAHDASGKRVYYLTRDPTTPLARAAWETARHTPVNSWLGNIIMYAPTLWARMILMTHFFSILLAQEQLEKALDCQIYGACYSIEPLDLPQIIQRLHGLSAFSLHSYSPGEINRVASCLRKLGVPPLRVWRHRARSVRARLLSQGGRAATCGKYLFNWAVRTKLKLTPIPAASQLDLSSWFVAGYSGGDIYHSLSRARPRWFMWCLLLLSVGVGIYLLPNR
(§1) The ability of the compounds of the present invention to inhibit Hepatitis C Polymerase was established by the following experimental procedure:
(§2) • 0.5M Na Phosphate buffer. Per liter, weigh 134 gr Na2HPO4.7H2O, add water to 900 ml. Adjust pH to 7.0 with phosphoric acid. Top off with water to 1 L. • Dilute nucleotides 1:1000 to 10 μM (GTP and CTP) or 1:100 to 100 μM (ATP and UTP) into RNase free water. Procedure: • (1) Compounds 10 μl at […] in 15% dimethylsulfoxide (DMSO) When starting from 100 μg/ml compound stock in 1% DMSO: Dispense 5 μl 30% DMSO per well Dispense 5 μl compound (100 μg/ml) per well. When starting from 50 μg/ml compound stock in 15% DMSO: Add 10 μl compound per well.
(§3) Add 20 μl enzyme mix into each well of the assay plate. Incubate compound and enzyme at room temperature for 15 minutes • (3) Template mix—prepare ahead
(§4) Spin down a tube of RNA (5 μg/tube stored in 75% ethanol and 0.3 M sodium acetate) in a microcentrifuge for 20 minutes at 4° C. One tube is enough for 1-1.5 plates. Remove as much ethanol from the tube as possible by inverting the tube. Be gentle, pellet RNA may not adhere to the tube. Vacuum dry the RNA. Resuspend the RNA by adding 1 ml of DEPC water, close the cap of the tube tightly. To dissolve RNA, incubate RNA solution on ice for ˜60 minutes and gently vortex. Spin briefly to ensure all RNA solution is down to the bottom of the tube before opening cap. Gently transfer RNA solution into a 5 ml or larger tube. Add another 3 ml of DEPC water (total 4 ml of volume).
(§5) Add the following volumes of reagents
(§6) Add 20 μl template mix per reaction (i.e. 20 ng of pOF per reaction or ˜3 nM) • (4) Incubate reaction at room temperature (22-25° C.) for 2 hours. • (5) Stop reaction by adding 50 μl of 170 mM EDTA.
(§7) Final concentration of EDTA is 85 mM. • (6) Prewet filters of Millipore multiscreen assay plate by adding 200 μl of 0.5 M sodium phosphate buffer, pH 7.0 into each well. Let stand at room temperature for 2-3 minutes. • (7) Place the multiscreen filter plate onto a Millipore Manifold and turn on vacuum to allow buffer to flow through. Turn off vacuum. Transfer 80 μl of the reaction product into each well of the filter plate. Let stand for 2-3 minutes. Turn on vacuum to filter reaction product. • (8) Turn off vacuum. Add 200 μl of 0.5 M sodium phosphate buffer, pH 7.0 into each well to wash filter. Turn on vacuum.
(§8) Repeat step (8) three more times. • (9) Remove polypropylene bottom. Spot dry filter at the bottom with paper towel. Air dry filter plate on a bench for 1 hour. Add 40 μl Super Mix scintillant. Seal top of the plate with a tape. Place plate into a Packard carrier or micro-beta carrier. • (10) Count plate using a Packard Topcount or micro-beta counter. Count (for example using Program 10) for ^33P in Top count or ^33P program in micro-beta.
(§9) See, Ferrari et al. 1999. J. Virology 73:1649-1654: “Characterization of soluble Hepatitis C virus RNA-dependent RNA polymerase expressed in E. coli and Takamizawa et al. 1991” and J. Virology 65:1105-1113: “Structure and characterization of the Hepatitis C virus genome isolated from human carriers,” both references are hereby incorporated by reference.

Experiment [2] concerns the target T1, NS5B from the BK strain (genotype 1b) (Hepatitis C virus genotype 1b, UniProt P26663).
T1 construct: NS5B from the BK strain (genotype 1b) is expressed in E coli as a protein in which the 21 C-terminal amino acids are replaced; made in house; host or cells: E. coli
Put plainly: Hepatitis C polymerase (NS5B, BK strain) inhibition, radioactive filter assay. Type of experiment: biochemical. The following applies: NS5B BK strain (genotype 1b).
From the text: as §1
NS5B from the BK strain (genotype 1b) is expressed in E coli as a protein in which the 21 C-terminal amino acids are replaced with a short linker and a hexahistidine tag ([…]). The purified protein is mixed with radioactive nucleotides and allowed to replicate a heteropolymeric RNA substrate, primed by an endogenous short hairpin, resulting in an approximately 760 nt product. The radioactive product is captured on a filter and quantitated after removal of the unincorporated nucleotides.
as §2, §3, §4, §5, §6, §7, §8, §9

[3] abbreviates: BB7 (Con1) NS5B, read-out: BB7 IC50.

T1 sequence (P26663 2420-2989): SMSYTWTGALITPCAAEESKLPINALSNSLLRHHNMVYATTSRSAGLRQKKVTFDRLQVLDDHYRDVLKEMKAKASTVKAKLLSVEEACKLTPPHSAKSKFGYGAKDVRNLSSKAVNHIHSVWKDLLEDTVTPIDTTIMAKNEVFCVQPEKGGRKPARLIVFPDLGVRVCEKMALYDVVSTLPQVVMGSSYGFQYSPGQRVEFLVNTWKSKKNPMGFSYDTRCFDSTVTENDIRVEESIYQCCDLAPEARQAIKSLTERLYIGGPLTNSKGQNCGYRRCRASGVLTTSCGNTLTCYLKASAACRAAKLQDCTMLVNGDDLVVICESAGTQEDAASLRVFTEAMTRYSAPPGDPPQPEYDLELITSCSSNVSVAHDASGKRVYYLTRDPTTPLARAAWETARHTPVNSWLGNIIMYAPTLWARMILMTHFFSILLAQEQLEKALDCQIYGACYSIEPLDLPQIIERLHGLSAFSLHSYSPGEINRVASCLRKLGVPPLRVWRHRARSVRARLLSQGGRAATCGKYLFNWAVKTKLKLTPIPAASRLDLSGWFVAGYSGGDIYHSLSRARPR

What is called IC50 is the concentration at which inhibition is half-maximal. Take `CCCC1(CC(=O)O)OCCc2c1[nH]c1c(C)c(OCCOC(C)C)cc(C#N)c21` (stereo not drawn) [Example 112]: the IC50 in experiment [1] and in experiment [2] was under 500 nM each time.

`CCCC1(CC(=O)O)OCCc2c1[nH]c1c(C)c(OC(C)c3cc(C)n(C)n3)cc(C#N)c21` (stereo not drawn) [Example 84]: the IC50 in experiment [1] (setting [3]) and in experiment [2] was under 500 nM throughout.

For `CCCC1(CC(=O)O)OCCc2c1[nH]c1c(C)c(OCCCOC)cc(C#N)c21` (stereo not drawn) [Example 119], the IC50 in experiment [1] and in experiment [2] was under 500 nM throughout.

As for `CCCC1(CC(=O)O)OCCc2c1[nH]c1c(C)c(COCc3ccc4c(c3)OCO4)cc(C#N)c21` (stereo not drawn) [Example 16, [7-(Benzo[1,3]dioxol-5-ylmethoxymethyl)-5-cyano-8-methyl-1-propyl-1,3,4,9-tetrahydro-pyrano[3,4-b]indol-1-yl]-acetic acid], the half-inhibitory concentration (IC50) in experiment [1] is under 500 nM; in experiment [2], 500 to 5000 nM.

As for `CCCC1(CC(=O)O)OCCc2c1[nH]c1c(C)c(OCc3cc(CC)n(CC)n3)cc(C#N)c21` (stereo not drawn) [Example 138], the IC50 in experiment [1] (setting [3]) and in experiment [2] was under 500 nM each time.

For the compound `CCCC1(CC(=O)O)OCCc2c1[nH]c1c(C)c(OCC(C)O)cc(C#N)c21` (stereo not drawn) [Example 102], the IC50 in experiment [1] and in experiment [2] was under 500 nM each time.

Take `CCC[C@]1(CC(=O)O)OCCc2c1[nH]c1c(C)c(O)cc(C#N)c21` [Example 46]: the half-maximal inhibitory concentration (IC50) in experiment [1] and in experiment [2] was under 500 nM throughout.

For `CCCC1(CC(=O)O)OCCc2c1[nH]c1c(C)c(OCc3ccnc(NS(C)(=O)=O)c3)cc(C#N)c21` (stereo not drawn) [Example 96], the IC50 in experiment [1] and in experiment [2] was under 500 nM throughout.

Turning to `CCCC1(CC(=O)O)OCCc2c1[nH]c1c(C)c(OCc3cc(C)n(C)n3)cc(C#N)c21` (stereo not drawn) [Example 78], the IC50 in experiment [1] and in experiment [2] was under 500 nM in each case.

On to `CCCC1(CC(=O)O)OCCc2c1[nH]c1c(C)c(OCc3ccon3)cc(C#N)c21` (stereo not drawn) [Example 124], for which the IC50 in experiment [1] and in experiment [2] was under 500 nM throughout.

With `CCCC1(CC(=O)O)OCCc2c1[nH]c1c(C)c(OCc3cc(C)n(CC)n3)cc(C#N)c21` (stereo not drawn) [Example 140], the IC50 in experiment [1] and in experiment [2] was under 500 nM throughout.

In the case of `CCCC1(CC(=O)O)OCCc2c1[nH]c1c(C)c(O[C@@H]3CCOC3)cc(C#N)c21` (stereo partly drawn) [Example 39], the IC50 in experiment [1] (setting [3]) and in experiment [2] was under 500 nM each time.

Regarding `CCCC1(CC(=O)O)OCCc2c1[nH]c1c(C)c(OCc3cccc(C)n3)cc(C#N)c21` (stereo not drawn) [Example 63], the IC50 in experiment [1] (setting [3]) and in experiment [2] was under 500 nM each time.

Consider `CC[C@H](C)C1(CC(=O)O)OCCc2c1[nH]c1c(C)c(OCc3nsc(N(C)C)n3)cc(C#N)c21` (mixture of isomers) [Example 35, (1R*,10S)-[1-sec-Butyl-5-cyano-7-(5-dimethylamino-[1,2,4]thiadiazol-3-ylmethoxy)-8-methyl-1,3,4,9-tetrahydro-pyrano[3,4-b]indol-1-yl]-acetic acid], for which the IC50 in experiment [1] and in experiment [2] was under 500 nM throughout.

For `CCC[C@]1(CC(=O)O)OCCc2c1[nH]c1c(C)c(OCCOC(C)C)cc(C#N)c21` [Example 26, (R)-[5-Cyano-7-(2-isopropoxy-ethoxy)-8-methyl-1-propyl-1,3,4,9-tetrahydro-pyrano[3,4-b]indol-1-yl]-acetic acid], the IC50 in experiment [1] and in experiment [2] was under 500 nM each time.

For `CCCC1(CC(=O)O)OCCc2c1[nH]c1c(C)c(OC[C@H]3CCC(=O)N3)cc(C#N)c21` (stereo partly drawn) [Example 101], the half-inhibitory concentration (IC50) in experiment [1] and in experiment [2] was under 500 nM in each case.

As to `CCC[C@]1(CC(=O)O)OCCc2c1[nH]c1c(C)c(OCc3ccnc(C)c3)cc(C#N)c21` [Example 53], the IC50 in experiment [1] and in experiment [2] was under 500 nM in each case.

`CCCC1(CC(=O)O)OCCc2c1[nH]c1c(C)c(OCc3c[nH]cn3)cc(C#N)c21` (stereo not drawn) [Example 76]: the half-inhibitory concentration (IC50) in experiment [1] (setting [3]) and in experiment [2] was under 500 nM each time.

As to `CCCC1(CC(=O)O)OCCc2c1[nH]c1c(C)c(OCOC)cc(C#N)c21` (stereo not drawn) [Example 113], the IC50 in experiment [1] and in experiment [2] was under 500 nM throughout.

`CCCC1(CC(=O)O)OCCc2c1[nH]c1c(C)c(OCc3cc(C4CC4)on3)cc(C#N)c21` (stereo not drawn) [Example 127]: the IC50 in experiment [1] (setting [3]) and in experiment [2] was under 500 nM throughout.

In the case of `CCCC1(CC(=O)O)OCCc2c1[nH]c1c(C)c(OCc3ccc(N4CCOCC4)nc3)cc(C#N)c21` (stereo not drawn) [Example 68], the IC50 in experiment [1] and in experiment [2] was under 500 nM each time.

For the compound “(7-Benzyloxymethyl-5-cyano-8-methyl-1-propyl-1,3,4,9-tetrahydro-pyrano[3,4-b]indol-1-yl)-acetic acid [Example 15]”, the IC50 in experiment [1] (setting [3]) and in experiment [2] was under 500 nM in each case.

On to `CCCC1(CC(=O)O)OCCc2c1[nH]c1c(C)c(OCc3ccnc(C(C)O)c3)cc(C#N)c21` (stereo not drawn) [Example 92], for which the IC50 in experiment [1] and in experiment [2] was under 500 nM throughout.

Take `CCCC1(CC(=O)O)OCCc2c1[nH]c1c(C)c(OCCCc3cc(C)on3)cc(C#N)c21` (stereo not drawn) [Example 135]: the IC50 in experiment [1] and in experiment [2] was under 500 nM in each case.

Regarding `CCC(C)C1(CC(=O)O)OCCc2c1[nH]c1c(C)c(OCc3cc(C)n(C)n3)cc(C#N)c21` [Example 36, (1R*,10S)-[1-sec-Butyl-5-cyano-7-(1,5-dimethyl-1H-pyrazol-3-ylmethoxy)-8-methyl-1,3,4,9-tetrahydro-pyrano[3,4-b]indol-1-yl]-acetic acid], the IC50 in experiment [1] and in experiment [2] was under 500 nM in each case.

As for `CCCC1(CC(=O)O)OCCc2c1[nH]c1c(C)c(OCc3nsc(N(CC)CC)n3)cc(C#N)c21` (stereo not drawn) [Example 132], the IC50 in experiment [1] and in experiment [2] was under 500 nM in each case.

Turning to `CCCC1(CC(=O)O)OCCc2c1[nH]c1c(C)c(OCC3CCSCC3)cc(C#N)c21` (stereo not drawn) [Example 106], the IC50 in experiment [1] and in experiment [2] was under 500 nM throughout.

With `CCCC1(CC(=O)O)OCCc2c1[nH]c1c(C)c(OCc3cc(C)no3)cc(C#N)c21` (stereo not drawn) [Example 79], the IC50 in experiment [1] and in experiment [2] was under 500 nM in each case.

As for `CCCC1(CC(=O)O)OCCc2c1[nH]c1c(C)c(COCc3ccsc3)cc(C#N)c21` (stereo not drawn) [Example 18, [5-Cyano-8-methyl-1-propyl-7-(thiophen-3-ylmethoxymethyl)-1,3,4,9-tetrahydro-pyrano[3,4-b]indol-1-yl]-acetic acid], the IC50 is under 500 nM in experiment [1] and 500 to 5000 nM in experiment [2].

In the case of `CCCC1(CC(=O)O)OCCc2c1[nH]c1c(C)c(OCc3cc[nH]n3)cc(C#N)c21` (stereo not drawn) [Example 83], the IC50 in experiment [1] and in experiment [2] was under 500 nM each time.
